Patent publication US20230000813A1, “COMPOUND FOR THE TREATMENT OF BOVINE OR SWINE RESPIRATORY DISEASE” (Intervet Inc., priority 2016, published 2023)
In brackets after ≈: the same amount, converted by molar mass.

These compounds were tested on Mannheimia haemolytica MH 13065 (XB0446-6003.9, BRD field isolate) (assay: MIC, broth-microdilution (CLSI VET01-A4)). Details: not given.
Assay type: cell-based
Method in brief: (§1)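 MIC read by eye as lowest compound concentration without visible growth (no turbidity), interpreted per CLSI VET01-S3. Doubling-dilution broth-microdilution trays, run according to CLSI VET01-A4.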

| SMILES | MIC [µM] |
| --- | --- |
| COc1ccc(CNCc2ccc(C#Cc3ccc(C(=O)N[C@H](C(=O)NO)[C@@H](C)O)cc3)s2)cc1 [Compound 306] | 0.4 (≈ 0.197 µg/mL) |
| C=CCNCc1ccc(C#Cc2ccc(C(=O)NC(C(=O)NO)C(C)(C)SC)cc2)cc1 (centres unmarked) [C. 582] | 0.8 (≈ 0.361 µg/mL) |
| CC(C)(N)C(NC(=O)c1ccc(C#Cc2ccc(CNCC(F)(F)F)cc2)cc1)C(=O)NO (racemic) [Compound 623] | 0.8 (≈ 0.37 µg/mL) |
| C[C@@H](O)[C@H](NC(=O)c1ccc(C#Cc2ccc(CNC3CC3)cc2)cc1)C(=O)NO [C. 103] | 0.4 (≈ 0.163 µg/mL) |
| C[C@@H](O)[C@H](NC(=O)c1ccc(C#Cc2ccc(CNCc3ccco3)cc2)cc1)C(=O)NO [C. 259] | 0.4 (≈ 0.179 µg/mL) |

Each compound was assayed on Mannheimia haemolytica MH 13093 (XB0472-6014.1, BRD field isolate) (assay: MIC, broth-microdilution (CLSI VET01-A4)). Details: not given.
Assay type: cell-based
Method in brief: as §1

| SMILES | MIC [µM] |
| --- | --- |
| COc1ccc(CNCc2ccc(C#Cc3ccc(C(=O)N[C@H](C(=O)NO)[C@@H](C)O)cc3)s2)cc1 [Compound 306] | 0.8 (≈ 0.395 µg/mL) |
| C=CCNCc1ccc(C#Cc2ccc(C(=O)NC(C(=O)NO)C(C)(C)SC)cc2)cc1 (centres unmarked) [C. 582] | 0.8 (≈ 0.361 µg/mL) |
| CC(C)(N)C(NC(=O)c1ccc(C#Cc2ccc(CNCC(F)(F)F)cc2)cc1)C(=O)NO (racemic) [Compound 623] | 0.8 (≈ 0.37 µg/mL) |
| C[C@@H](O)[C@H](NC(=O)c1ccc(C#Cc2ccc(CNC3CC3)cc2)cc1)C(=O)NO [C. 103] | 1.6 (≈ 0.652 µg/mL) |
| C[C@@H](O)[C@H](NC(=O)c1ccc(C#Cc2ccc(CNCc3ccco3)cc2)cc1)C(=O)NO [C. 259] | 0.4 (≈ 0.179 µg/mL) |

Each compound was assayed on Pasteurella multocida PM 12080 (IV102277-0093, BRD field isolate) (assay: MIC, broth-microdilution (CLSI VET01-A4)). Details: Pasteurella multocida PM 12080.
Assay type: cell-based
Method in brief: (§2)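 MIC values follow CLSI VET01-S3 interpretation, scored as the lowest concentration free of visible turbidity within a doubling dilution series in microdilution trays.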

| SMILES | MIC PM 12080 |
| --- | --- |
| CC(C)(N)C(NC(=O)c1ccc(C#Cc2ccc(CNCC(F)(F)F)cc2)cc1)C(=O)NO (racemic) [Compound 623] | <=0.1 μM |
| C[C@@H](O)[C@H](NC(=O)c1ccc(C#Cc2ccc(CNC3CC3)cc2)cc1)C(=O)NO [C. 103] | <=0.1 μM |
| C[C@@H](O)[C@H](NC(=O)c1ccc(C#Cc2ccc(CNCc3ccco3)cc2)cc1)C(=O)NO [C. 259] | <=0.1 μM |

Same assay, conditions: Pasteurella multocida PM 12080; read-out: MIC PM 12080

| SMILES | MIC [µM] |
| --- | --- |
| COc1ccc(CNCc2ccc(C#Cc3ccc(C(=O)N[C@H](C(=O)NO)[C@@H](C)O)cc3)s2)cc1 [Compound 306] | 0.2 (≈ 0.0987 µg/mL) |
| C=CCNCc1ccc(C#Cc2ccc(C(=O)NC(C(=O)NO)C(C)(C)SC)cc2)cc1 (centres unmarked) [C. 582] | 0.4 (≈ 0.181 µg/mL) |

Each compound was assayed on Pasteurella multocida PM 6267 (P 2225 (L386), reference strain, mouse infection strain) (assay: MIC, broth-microdilution (CLSI VET01-A4)). Details: Pasteurella multocida PM 6267.
Assay type: cell-based
Method in brief: as §2

| SMILES | MIC PM 6267 |
| --- | --- |
| COc1ccc(CNCc2ccc(C#Cc3ccc(C(=O)N[C@H](C(=O)NO)[C@@H](C)O)cc3)s2)cc1 [Compound 306] | <=0.1 μM |
| C=CCNCc1ccc(C#Cc2ccc(C(=O)NC(C(=O)NO)C(C)(C)SC)cc2)cc1 (centres unmarked) [C. 582] | <=0.1 μM |
| CC(C)(N)C(NC(=O)c1ccc(C#Cc2ccc(CNCC(F)(F)F)cc2)cc1)C(=O)NO (racemic) [Compound 623] | <=0.1 μM |
| C[C@@H](O)[C@H](NC(=O)c1ccc(C#Cc2ccc(CNC3CC3)cc2)cc1)C(=O)NO [C. 103] | <=0.1 μM |
| C[C@@H](O)[C@H](NC(=O)c1ccc(C#Cc2ccc(CNCc3ccco3)cc2)cc1)C(=O)NO [C. 259] | <=0.1 μM |

What follows are compounds tested on Mannheimia haemolytica MH 10720 (154, BRD field isolate) (assay: MIC, broth-microdilution (CLSI VET01-A4)). Details: Mannheimia haemolytica MH 10720.
Assay type: cell-based
Method in brief: as §2

| SMILES | MIC MH 10720 |
| --- | --- |
| COc1ccc(CNCc2ccc(C#Cc3ccc(C(=O)N[C@H](C(=O)NO)[C@@H](C)O)cc3)s2)cc1 [Compound 306] | <=0.1 μM |
| C=CCNCc1ccc(C#Cc2ccc(C(=O)NC(C(=O)NO)C(C)(C)SC)cc2)cc1 (centres unmarked) [C. 582] | <=0.1 μM |
| CC(C)(N)C(NC(=O)c1ccc(C#Cc2ccc(CNCC(F)(F)F)cc2)cc1)C(=O)NO (racemic) [Compound 623] | <=0.1 μM |
| C[C@@H](O)[C@H](NC(=O)c1ccc(C#Cc2ccc(CNCc3ccco3)cc2)cc1)C(=O)NO [C. 259] | <=0.1 μM |

Same assay, conditions: Mannheimia haemolytica MH 10720; read-out: MIC MH 10720

| SMILES | MIC [µM] |
| --- | --- |
| C[C@@H](O)[C@H](NC(=O)c1ccc(C#Cc2ccc(CNC3CC3)cc2)cc1)C(=O)NO [C. 103] | 0.2 (≈ 0.0815 µg/mL) |

What follows are compounds tested on Mannheimia haemolytica MH 12587 (1071, BRD field isolate, macrolide-resistance: erm+, E+) (assay: MIC, broth-microdilution (CLSI VET01-A4)). Details: Mannheimia haemolytica MH 12587, macrolide-resistant.
Assay type: cell-based
Method in brief: as §2

| SMILES | MIC MH 12587 [µM] |
| --- | --- |
| COc1ccc(CNCc2ccc(C#Cc3ccc(C(=O)N[C@H](C(=O)NO)[C@@H](C)O)cc3)s2)cc1 [Compound 306] | 0.8 (≈ 0.395 µg/mL) |
| C=CCNCc1ccc(C#Cc2ccc(C(=O)NC(C(=O)NO)C(C)(C)SC)cc2)cc1 (centres unmarked) [C. 582] | 1.6 (≈ 0.723 µg/mL) |
| CC(C)(N)C(NC(=O)c1ccc(C#Cc2ccc(CNCC(F)(F)F)cc2)cc1)C(=O)NO (racemic) [Compound 623] | 1.6 (≈ 0.74 µg/mL) |
| C[C@@H](O)[C@H](NC(=O)c1ccc(C#Cc2ccc(CNC3CC3)cc2)cc1)C(=O)NO [C. 103] | 0.8 (≈ 0.326 µg/mL) |
| C[C@@H](O)[C@H](NC(=O)c1ccc(C#Cc2ccc(CNCc3ccco3)cc2)cc1)C(=O)NO [C. 259] | 0.4 (≈ 0.179 µg/mL) |

What follows are compounds tested on Mannheimia haemolytica MH 6374 (ATCC 33396, reference strain) (assay: MIC, broth-microdilution (CLSI VET01-A4)). Details: Mannheimia haemolytica MH 6374; read-out: MIC MH 6374.
Assay type: cell-based
Method in brief: as §2

| SMILES | MIC [µM] |
| --- | --- |
| COc1ccc(CNCc2ccc(C#Cc3ccc(C(=O)N[C@H](C(=O)NO)[C@@H](C)O)cc3)s2)cc1 [Compound 306] | 0.4 (≈ 0.197 µg/mL) |
| C=CCNCc1ccc(C#Cc2ccc(C(=O)NC(C(=O)NO)C(C)(C)SC)cc2)cc1 (centres unmarked) [C. 582] | 0.8 (≈ 0.361 µg/mL) |
| CC(C)(N)C(NC(=O)c1ccc(C#Cc2ccc(CNCC(F)(F)F)cc2)cc1)C(=O)NO (racemic) [Compound 623] | 0.4 (≈ 0.185 µg/mL) |
| C[C@@H](O)[C@H](NC(=O)c1ccc(C#Cc2ccc(CNC3CC3)cc2)cc1)C(=O)NO [C. 103] | 0.195 (≈ 0.0795 µg/mL) |
| C[C@@H](O)[C@H](NC(=O)c1ccc(C#Cc2ccc(CNCc3ccco3)cc2)cc1)C(=O)NO [C. 259] | 0.2 (≈ 0.0895 µg/mL) |

What follows are compounds tested on Pasteurella multocida PM 6391 (ATCC 43137, reference strain) (assay: MIC, broth-microdilution (CLSI VET01-A4)). Details: Pasteurella multocida PM 6391.
Assay type: cell-based
Method in brief: as §2

| SMILES | MIC PM 6391 |
| --- | --- |
| C[C@@H](O)[C@H](NC(=O)c1ccc(C#Cc2ccc(CNCc3ccco3)cc2)cc1)C(=O)NO [C. 259] | <=0.1 μM |

Same assay, conditions: Pasteurella multocida PM 6391; read-out: MIC PM 6391

| SMILES | MIC [µM] |
| --- | --- |
| COc1ccc(CNCc2ccc(C#Cc3ccc(C(=O)N[C@H](C(=O)NO)[C@@H](C)O)cc3)s2)cc1 [Compound 306] | 0.2 (≈ 0.0987 µg/mL) |
| C=CCNCc1ccc(C#Cc2ccc(C(=O)NC(C(=O)NO)C(C)(C)SC)cc2)cc1 (centres unmarked) [C. 582] | 0.4 (≈ 0.181 µg/mL) |
| CC(C)(N)C(NC(=O)c1ccc(C#Cc2ccc(CNCC(F)(F)F)cc2)cc1)C(=O)NO (racemic) [Compound 623] | 0.2 (≈ 0.0925 µg/mL) |
| C[C@@H](O)[C@H](NC(=O)c1ccc(C#Cc2ccc(CNC3CC3)cc2)cc1)C(=O)NO [C. 103] | 0.195 (≈ 0.0795 µg/mL) |

These compounds were tested on Mannheimia haemolytica MH 6357 (M7/2, reference strain, cattle infection strain) (assay: MIC, broth-microdilution (CLSI VET01-A4)). Details: Mannheimia haemolytica MH 6357; read-out: MIC MH 6357.
Assay type: cell-based
Method in brief: as §2

| SMILES | MIC [µM] |
| --- | --- |
| COc1ccc(CNCc2ccc(C#Cc3ccc(C(=O)N[C@H](C(=O)NO)[C@@H](C)O)cc3)s2)cc1 [Compound 306] | 0.4 (≈ 0.197 µg/mL) |
| C=CCNCc1ccc(C#Cc2ccc(C(=O)NC(C(=O)NO)C(C)(C)SC)cc2)cc1 (centres unmarked) [C. 582] | 0.8 (≈ 0.361 µg/mL) |
| CC(C)(N)C(NC(=O)c1ccc(C#Cc2ccc(CNCC(F)(F)F)cc2)cc1)C(=O)NO (racemic) [Compound 623] | 0.8 (≈ 0.37 µg/mL) |
| C[C@@H](O)[C@H](NC(=O)c1ccc(C#Cc2ccc(CNC3CC3)cc2)cc1)C(=O)NO [C. 103] | 0.391 (≈ 0.159 µg/mL) |
| C[C@@H](O)[C@H](NC(=O)c1ccc(C#Cc2ccc(CNCc3ccco3)cc2)cc1)C(=O)NO [C. 259] | 0.2 (≈ 0.0895 µg/mL) |

What follows are compounds tested on Pasteurella multocida PM 10775 (080130003051, BRD field isolate) (assay: MIC, broth-microdilution (CLSI VET01-A4)). Details: Pasteurella multocida PM 10775.
Assay type: cell-based
Method in brief: as §2

| SMILES | MIC PM 10775 |
| --- | --- |
| COc1ccc(CNCc2ccc(C#Cc3ccc(C(=O)N[C@H](C(=O)NO)[C@@H](C)O)cc3)s2)cc1 [Compound 306] | <=0.1 μM |
| C=CCNCc1ccc(C#Cc2ccc(C(=O)NC(C(=O)NO)C(C)(C)SC)cc2)cc1 (centres unmarked) [C. 582] | <=0.1 μM |
| CC(C)(N)C(NC(=O)c1ccc(C#Cc2ccc(CNCC(F)(F)F)cc2)cc1)C(=O)NO (racemic) [Compound 623] | <=0.1 μM |
| C[C@@H](O)[C@H](NC(=O)c1ccc(C#Cc2ccc(CNC3CC3)cc2)cc1)C(=O)NO [C. 103] | <=0.1 μM |
| C[C@@H](O)[C@H](NC(=O)c1ccc(C#Cc2ccc(CNCc3ccco3)cc2)cc1)C(=O)NO [C. 259] | <=0.1 μM |
